Residues, ends and D or L forms follow the SMILES beside them.
Assays:
[1] = target: zebrafish vasopressin1-a1 receptor (ZF V1a1R); format: cell-based, zebrafish (Danio rerio)
[2] = tested on: zebrafish vasopressin1-a2 receptor (ZF V1a2R); format: cell-based, zebrafish (Danio rerio)
[3] = target: T1, human vasopressin-1b receptor (hV1bR) (Homo sapiens, UniProt P47901); assay: cell-based; format: cell-based
T1 construct: host or cells: COS-1
T1 sequence (P47901 1-424): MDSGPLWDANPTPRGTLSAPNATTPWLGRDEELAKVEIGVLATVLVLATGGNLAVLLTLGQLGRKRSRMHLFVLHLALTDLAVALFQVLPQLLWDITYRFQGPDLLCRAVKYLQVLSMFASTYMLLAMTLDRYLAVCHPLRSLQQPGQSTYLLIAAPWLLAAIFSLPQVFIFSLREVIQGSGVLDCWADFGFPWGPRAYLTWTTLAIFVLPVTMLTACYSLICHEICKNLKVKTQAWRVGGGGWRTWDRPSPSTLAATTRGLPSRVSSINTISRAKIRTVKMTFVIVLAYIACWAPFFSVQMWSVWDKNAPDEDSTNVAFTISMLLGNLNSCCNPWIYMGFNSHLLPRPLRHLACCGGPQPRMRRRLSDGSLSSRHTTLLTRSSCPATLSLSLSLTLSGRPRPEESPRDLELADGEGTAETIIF

[4] = target: T2, human oxytocin receptor (hOTR) (Homo sapiens, UniProt P30559); assay: cell-based; format: cell-based
T2 construct: host or cells: COS-1
T2 sequence (P30559 1-389): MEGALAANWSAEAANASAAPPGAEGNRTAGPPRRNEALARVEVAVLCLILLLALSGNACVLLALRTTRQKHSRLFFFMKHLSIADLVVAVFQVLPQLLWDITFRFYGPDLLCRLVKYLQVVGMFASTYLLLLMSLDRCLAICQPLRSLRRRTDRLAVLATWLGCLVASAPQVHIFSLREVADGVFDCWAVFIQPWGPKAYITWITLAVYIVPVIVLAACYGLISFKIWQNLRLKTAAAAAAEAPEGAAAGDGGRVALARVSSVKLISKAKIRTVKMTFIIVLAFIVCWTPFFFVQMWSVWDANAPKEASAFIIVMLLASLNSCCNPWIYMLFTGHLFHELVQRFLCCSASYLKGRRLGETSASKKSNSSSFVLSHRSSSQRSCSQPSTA

[5] = tested on: zebrafish vasopressin2 receptor (ZF V2R); format: cell-based, zebrafish (Danio rerio); details: for EC50: read-out: Mean EC50 ZF V2R
[6] = target: T3, zebrafish oxytocin/isotocin receptor (ZF oxy/isoR) (Danio rerio, UniProt E4W699); assay: cell-based; format: cell-based
T3 construct: host or cells: COS-1
T3 sequence (E4W699 1-388): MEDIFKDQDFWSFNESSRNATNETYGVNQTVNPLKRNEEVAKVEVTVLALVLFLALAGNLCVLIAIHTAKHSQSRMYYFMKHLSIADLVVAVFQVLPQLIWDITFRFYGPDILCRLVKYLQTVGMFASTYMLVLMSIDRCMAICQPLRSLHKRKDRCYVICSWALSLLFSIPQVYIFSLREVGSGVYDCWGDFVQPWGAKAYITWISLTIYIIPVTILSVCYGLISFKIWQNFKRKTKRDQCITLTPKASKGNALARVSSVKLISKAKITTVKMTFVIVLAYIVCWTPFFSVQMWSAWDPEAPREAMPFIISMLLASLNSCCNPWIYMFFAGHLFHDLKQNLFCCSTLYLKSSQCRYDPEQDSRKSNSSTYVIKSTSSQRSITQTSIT

[7] = target: T4, human vasopressin-1a receptor (hV1aR) (Homo sapiens, UniProt P37288); assay: cell-based
T4 construct: host or cells: COS-1
T4 sequence (P37288 whole entry): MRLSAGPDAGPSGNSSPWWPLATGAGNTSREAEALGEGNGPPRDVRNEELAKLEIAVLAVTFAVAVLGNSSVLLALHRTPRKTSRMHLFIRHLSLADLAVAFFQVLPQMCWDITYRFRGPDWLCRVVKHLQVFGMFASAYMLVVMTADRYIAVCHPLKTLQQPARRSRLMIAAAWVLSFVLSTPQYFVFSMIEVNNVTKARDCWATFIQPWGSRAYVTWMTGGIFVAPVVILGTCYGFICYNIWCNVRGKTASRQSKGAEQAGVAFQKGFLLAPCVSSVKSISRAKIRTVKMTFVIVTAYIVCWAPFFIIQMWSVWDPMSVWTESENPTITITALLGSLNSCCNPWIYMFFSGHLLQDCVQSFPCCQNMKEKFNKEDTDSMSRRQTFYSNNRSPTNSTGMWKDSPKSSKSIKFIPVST

[8] = target: T5, human vasopressin2 receptor (hV2R) (Homo sapiens, UniProt P30518); assay: cell-based
T5 construct: host or cells: COS-1
T5 sequence (P30518 whole entry): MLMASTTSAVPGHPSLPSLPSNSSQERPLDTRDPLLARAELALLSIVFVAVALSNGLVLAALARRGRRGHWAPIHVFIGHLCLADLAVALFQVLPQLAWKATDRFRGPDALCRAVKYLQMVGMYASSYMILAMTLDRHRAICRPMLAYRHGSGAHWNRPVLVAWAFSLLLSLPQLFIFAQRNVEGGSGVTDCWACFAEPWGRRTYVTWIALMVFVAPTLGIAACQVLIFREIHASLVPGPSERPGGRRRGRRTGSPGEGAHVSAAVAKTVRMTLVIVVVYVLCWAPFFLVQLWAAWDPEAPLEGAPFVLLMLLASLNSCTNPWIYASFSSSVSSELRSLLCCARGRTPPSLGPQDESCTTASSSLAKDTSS

SMILES | EC50 [1] | Selectivity ZF V1a1R [1] | Selectivity ZF V1a2R [2] | response of control at ZF V1a2R (partial agonist) [2] | EC50 [3] | Selectivity hV1bR [3] | response of control at hOTR (partial agonist) [4] | Selectivity ZF V2R [5] | Selectivity ZF oxy [6] | response of control at ZF oxy/isoR (partial agonist) [6] | EC50 [7] | Selectivity hV1aR [7] | EC50 [8] | Selectivity hV2R [8] | EC50 [2] | response of control at hV1b (weak and partial agonist) [3] | EC50 [4] | EC50 [5] | EC50 [6]
CC[C@H](C)[C@@H]1NC(=O)[C@H](Cc2ccccc2)NC(=O)[C@@H](N)CSSC[C@@H](C(=O)N2CCC[C@H]2C(=O)N[C@@H](CCCCN)C(=O)NCC(N)=O)NC(=O)[C@H](CC(N)=O)NC(=O)[C@H](CCCNC(=N)N)NC1=O [Con-G, conopressin-G] (HELM PEPTIDE1{C.F.I.R.N.C.P.K.G.[am]}$PEPTIDE1,PEPTIDE1,1:R3-6:R3$$$V2.0) | 0.01 µM | ZF V1a1R (x42.9) > ZF V1a2R (x10.3) > hV1bR (x8.8) > ZF V2R (x7.5) > hV1aR (x3.7) > hV2R (x1.5) > ZF oxy (x1.3) > hOTR | ZF V1a1R (x42.9) > ZF V1a2R (x10.3) > hV1bR (x8.8) > ZF V2R (x7.5) > hV1aR (x3.7) > hV2R (x1.5) > ZF oxy (x1.3) > hOTR | 69% | 0.052 µM | ZF V1a1R (x42.9) > ZF V1a2R (x10.3) > hV1bR (x8.8) > ZF V2R (x7.5) > hV1aR (x3.7) > hV2R (x1.5) > ZF oxy (x1.3) > hOTR | 28% | ZF V1a1R (x42.9) > ZF V1a2R (x10.3) > hV1bR (x8.8) > ZF V2R (x7.5) > hV1aR (x3.7) > hV2R (x1.5) > ZF oxy (x1.3) > hOTR | ZF V1a1R (x42.9) > ZF V1a2R (x10.3) > hV1bR (x8.8) > ZF V2R (x7.5) > hV1aR (x3.7) > hV2R (x1.5) > ZF oxy (x1.3) > hOTR | 62% | 0.123 µM | ZF V1a1R (x42.9) > ZF V1a2R (x10.3) > hV1bR (x8.8) > ZF V2R (x7.5) > hV1aR (x3.7) > hV2R (x1.5) > ZF oxy (x1.3) > hOTR | 0.3 µM | ZF V1a1R (x42.9) > ZF V1a2R (x10.3) > hV1bR (x8.8) > ZF V2R (x7.5) > hV1aR (x3.7) > hV2R (x1.5) > ZF oxy (x1.3) > hOTR | – | – | – | – | –
NC(=O)C[C@@H]1NC(=O)CNC(=O)[C@@H]2CCCN2C(=O)[C@H](Cc2ccccc2)NC(=O)[C@@H](N)CSSC[C@@H](C(=O)N2CCC[C@H]2C(=O)N[C@@H](CC(=O)O)C(=O)N[C@@H](CO)C(N)=O)NC1=O [Con-M1am, conopressin-M1] (HELM PEPTIDE1{C.F.P.G.N.C.P.D.S.[am]}$PEPTIDE1,PEPTIDE1,1:R3-6:R3$$$V2.0) | – | – | – | – | 38.2 µM | – | – | – | – | – | > 100 µM | – | > 100 µM | – | > 100 µM | 26% | > 100 µM | > 100 µM | > 100 µM
CC(C)C[C@@H]1NC(=O)[C@H](Cc2ccccc2)NC(=O)[C@@H](N)CSSC[C@@H](C(=O)N2CCC[C@H]2C(=O)N[C@@H](CC(=O)O)C(=O)N[C@@H](CO)C(N)=O)NC(=O)[C@H](CC(N)=O)NC(=O)CNC1=O [Con-M2am, conopressin-M2] (HELM PEPTIDE1{C.F.L.G.N.C.P.D.S.[am]}$PEPTIDE1,PEPTIDE1,1:R3-6:R3$$$V2.0) | > 100 µM | – | – | – | > 100 µM | – | – | – | – | – | > 100 µM | – | > 100 µM | – | > 100 µM | – | > 100 µM | 1.72 µM | > 100 µM

Reference: article PMC7143535, “Synthesis, Pharmacological and Structural Characterization of Novel Conopressins from Conus miliaris” (Marine Drugs, 2020)
